A value given as a limit tells only on which side of the number the result lay.

The target of this experiment is JAK1 (Homo sapiens (Human), UniProt P23458). Put plainly: Analysis of JAK1 activity inhibition ability (ADP-Glo Kinase Assay). It is filed as biochemical. The following applies: JAK1 enzyme, ADP-Glo luminescence, ATP 250 uM, IRS-itide substrate, 30° C. 40 minutes; read-out: IC50. A digest of the protocol: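 ADP-Glo luminescence read-out of ADP production, with IC50 taken as the concentration halving JAK1 activity relative to control. Enzyme was incubated 40 min at 30 °C with compound, IRS-itide (40 ng/mL) and ATP (250 uM), concentrations as prepared in pH 7.5 Tris-HCl/MgCl2/BSA/DTT buffer.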
JAK1, sequence (P23458 whole entry): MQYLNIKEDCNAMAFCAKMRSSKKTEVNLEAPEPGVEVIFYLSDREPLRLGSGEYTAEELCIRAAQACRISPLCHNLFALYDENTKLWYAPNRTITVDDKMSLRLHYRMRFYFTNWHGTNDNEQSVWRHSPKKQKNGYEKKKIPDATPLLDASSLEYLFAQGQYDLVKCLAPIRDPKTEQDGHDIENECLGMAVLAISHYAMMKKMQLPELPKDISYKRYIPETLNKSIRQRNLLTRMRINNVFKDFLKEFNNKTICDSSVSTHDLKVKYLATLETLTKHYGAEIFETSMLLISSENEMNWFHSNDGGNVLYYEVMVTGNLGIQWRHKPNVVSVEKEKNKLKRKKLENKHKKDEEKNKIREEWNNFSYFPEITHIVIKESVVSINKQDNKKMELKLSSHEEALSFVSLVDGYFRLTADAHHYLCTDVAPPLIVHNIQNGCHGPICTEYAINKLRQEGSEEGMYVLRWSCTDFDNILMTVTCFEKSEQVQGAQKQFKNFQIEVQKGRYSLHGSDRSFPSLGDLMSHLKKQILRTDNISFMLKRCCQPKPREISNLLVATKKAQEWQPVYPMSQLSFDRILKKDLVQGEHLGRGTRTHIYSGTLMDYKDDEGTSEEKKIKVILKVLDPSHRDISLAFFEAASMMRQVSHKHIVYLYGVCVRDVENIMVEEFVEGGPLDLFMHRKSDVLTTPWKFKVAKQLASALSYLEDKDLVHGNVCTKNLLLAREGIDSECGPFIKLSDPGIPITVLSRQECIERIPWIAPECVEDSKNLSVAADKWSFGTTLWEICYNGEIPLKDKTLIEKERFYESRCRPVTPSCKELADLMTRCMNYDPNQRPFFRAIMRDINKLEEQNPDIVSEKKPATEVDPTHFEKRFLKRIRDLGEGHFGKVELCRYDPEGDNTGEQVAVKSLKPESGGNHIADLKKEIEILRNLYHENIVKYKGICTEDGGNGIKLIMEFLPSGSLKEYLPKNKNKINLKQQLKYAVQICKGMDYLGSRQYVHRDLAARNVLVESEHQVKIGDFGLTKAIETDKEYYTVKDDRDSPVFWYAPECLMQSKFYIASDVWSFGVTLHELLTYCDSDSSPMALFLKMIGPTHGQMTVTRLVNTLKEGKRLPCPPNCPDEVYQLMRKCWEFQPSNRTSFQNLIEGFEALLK
(In ADP-Glo the light output rises with the ADP produced.)
The IC50 is the concentration needed to halve the response being measured. Consider `CCS(=O)(=O)Nc1ccc(-c2cc(NC(=O)C3CC3)nc3c2ccn3CC#N)cc1F` [Example 62, N-(1-(cyanomethyl)-4-(4-(ethylsulfonamido)-3-fluorophenyl)-1H-pyrrolo[2,3-b]pyridin-6-yl)cyclopropanecarboxamide], for which the IC50 is over 200 nM. Turning to `O=C(Nc1cc(C2=CCN(S(=O)(=O)NCC(F)(F)F)CC2)c2cc[nH]c2n1)C1CC1` [Example 232, N-(4-(1-(N-(2,2,2-trifluoroethyl)sulfamoyl)-1,2,3,6-tetrahydropyridin-4-yl)-1H-pyrrolo[2,3-b]pyridin-6-yl)cyclopropanecarboxamide], the IC50 fell in the range of 20 to 200 nM. Next, `O=C(Nc1nc(-c2ccc(NS(=O)(=O)N3CCOCC3)cc2)c2cc[nH]c2n1)C1CC1` [Example 235, N-(4-(4-(morpholine-4-sulfonamido)phenyl)-7H-pyrrolo[2,3-d]pyrimidin-2-yl)cyclopropanecarboxamide]: 20 to 200 nM.

On to `CCS(=O)(=O)Nc1cc(F)c(-c2cc(NC(=O)C3CC3)nc3[nH]ccc23)cc1F` [Example 83, N-(4-(4-(ethylsulfonamido)-2,5-difluorophenyl)-1H-pyrrolo[2,3-b]pyridin-6-yl)cyclopropanecarboxamide], for which the half-maximal inhibitory concentration (IC50) was under 20 nM. The figure for `C[C@@H]1C=C(c2cc(NC(=O)C3CC3)nc3[nH]ccc23)CCN1C(=O)CC#N` [Example 388, (R)—N-(4-(1-(2-cyanoacetyl)-6-methyl-1,2,3,6-tetrahydropyridin-4-yl)-1H-pyrrolo[2,3-b]pyridin-6-yl)cyclopropanecarboxamide] is under 20 nM; for `N#CCC(=O)N1CCC(Nc2ccc(-c3cc(NC(=O)C4CC4)nc4[nH]ccc34)cc2)CC1` [Example 516, N-(4-(4-((1-(2-cyanoacetyl)piperidin-4-yl)amino)phenyl)-1H-pyrrolo[2,3-b]pyridin-6-yl)cyclopropanecarboxamide] it is 20 to 200 nM.

On to `CC(C)(C)OC(=O)N1C2CCC1CN(c1cc(NC(=O)C3CC3)nc3[nH]ccc13)C2` [Example 693, tert-butyl 3-(6-(cyclopropanecarboxamido)-1H-pyrrolo[2,3-b]pyridin-4-yl)-3,8-diazabicyclo[3.2.1]octane-8-carboxylate], for which the IC50 lay in the range of 20 to 200 nM. The figure for `CCc1cc(NS(=O)(=O)C2CCC2)ccc1-c1cc(NC(=O)C2CC2)nc2[nH]ccc12` [Example 114, N-(4-(4-(cyclobutanesulfonamido)-2-ethylphenyl)-1H-pyrrolo[2,3-b]pyridin-6-yl)cyclopropanecarboxamide] is under 20 nM; for `O=C(Nc1cc(C2=CCN(C(=O)C3CC3C(F)(F)F)CC2)c2cc[nH]c2n1)C1CC1` (stereo not drawn) [Example 282, N-(4-(1-(2-(trifluoromethyl)cyclopropane-1-carbonyl)-1,2,3,6-tetrahydropyridin-4-yl)-1H-pyrrolo[2,3-b]pyridin-6-yl)cyclopropanecarboxamide] it is 20 to 200 nM; for `CC(C)(C)C1C=C(c2cc(NC(=O)C3CC3)nc3[nH]ccc23)CCN1C(=O)CC#N` (stereo not drawn) [Example 412, N-(4-(6-(tert-butyl)-1-(2-cyanoacetyl)-1,2,3,6-tetrahydropyridin-4-yl)-1H-pyrrolo[2,3-b]pyridin-6-yl)cyclopropanecarboxamide] it is under 20 nM. The figure for `O=C(Nc1nc(-c2ccc(NC(=S)NC3CCCCC3)cc2)c2cc[nH]c2n1)C1CC1` [Example 464, N-(4-(4-(3-cyclohexylthioureido)phenyl)-7H-pyrrolo[2,3-d]pyrimidin-2-yl)cyclopropanecarboxamide] is over 200 nM; for `N#CCCCn1ccc2c(-c3ccc(OS(=O)(=O)CCCC#N)cc3)cc(NC(=O)C3CC3)nc21` [Example 640, 4-(1-(3-cyanopropyl)-6-(cyclopropanecarboxamido)-1H-pyrrolo[2,3-b]pyridin-4-yl)phenyl 3-cyanopropane-1-sulfonate] it is over 200 nM; for `CCNC(=O)Cc1ccc(-c2cc(NC(=O)C3CC3)nc3[nH]ccc23)cc1` [Example 541, N-(4-(4-(2-(ethylamino)-2-oxoethyl)phenyl)-1H-pyrrolo[2,3-b]pyridin-6-yl)cyclopropanecarboxamide] it is 20 to 200 nM. For the compound `O=C(Nc1cc(C2=CCN(C(=O)C3CC3(F)F)CC2)c2cc[nH]c2n1)C1CC1` (stereo not drawn) [Example 263, N-(4-(1-(2,2-difluorocyclopropane-1-carbonyl)-1,2,3,6-tetrahydropyridin-4-yl)-1H-pyrrolo[2,3-b]pyridin-6-yl)cyclopropanecarboxamide], the IC50 was under 20 nM. In the case of `O=C(Nc1cc(-c2ccc(NC3CN(C(=O)Nc4ccc(F)cc4F)C3)cc2)c2cc[nH]c2n1)C1CC1` [Example 513, 3-((4-(6-(cyclopropanecarboxamido)-1H-pyrrolo[2,3-b]pyridin-4-yl)phenyl)amino)-N-(2,4-difluorophenyl)azetidine-1-carboxamide], the IC50 is over 200 nM.

For the compound `O=C(Nc1cc(C2=CCN(C(=O)C(F)(F)F)CC2)c2cc[nH]c2n1)C1CC1` [Example 272, N-(4-(1-(2,2,2-trifluoroacetyl)-1,2,3,6-tetrahydropyridin-4-yl)-1H-pyrrolo[2,3-b]pyridin-6-yl)cyclopropanecarboxamide], the 50% inhibitory concentration (IC50) was 20 to 200 nM. Next, `C[C@@H]1CN(C2(CC#N)CN(S(=O)(=O)C(F)(F)F)C2)CC=C1c1cc(NC(=O)C2CC2)nc2[nH]ccc12` [Example 628, (S)—N-(4-(1-(3-(cyanomethyl)-1-((trifluoromethyl)sulfonyl)azetidin-3-yl)-3-methyl-1,2,3,6-tetrahydropyridin-4-yl)-1H-pyrrolo[2,3-b]pyridin-6-yl)cyclopropanecarboxamide]: under 20 nM; `CC1CN(C(=O)c2ccncc2F)CC=C1c1cc(NC(=O)C2CC2)nc2[nH]ccc12` (stereo not drawn) [Example 314, N-(4-(1-(3-fluoroisonicotinoyl)-3-methyl-1,2,3,6-tetrahydropyridin-4-yl)-1H-pyrrolo[2,3-b]pyridin-6-yl)cyclopropanecarboxamide]: 20 to 200 nM.

Regarding `N#Cc1ccc(Cn2cc(-c3nc(NC(=O)C4CC4)nc4[nH]ccc34)cn2)cn1` [Example 482, N-(4-(1-((6-cyanopyridin-3-yl)methyl)-1H-pyrazol-4-yl)-7H-pyrrolo[2,3-d]pyrimidin-2-yl)cyclopropanecarboxamide], the IC50 was over 200 nM. Take `CCc1cc(-c2cc(NC(=O)C3CC3)nc3[nH]ccc23)ccc1NS(=O)(=O)CC` [Example 124, N-(4-(3-ethyl-4-(ethylsulfonamido)phenyl)-1H-pyrrolo[2,3-b]pyridin-6-yl)cyclopropanecarboxamide]: the IC50 was under 20 nM. Next, `CC1CN(C(=O)c2ccc(Cl)cc2)CC=C1c1cc(NC(=O)C2CC2)nc2[nH]ccc12` (stereo not drawn) [Example 333, N-(4-(1-(4-chlorobenzoyl)-3-methyl-1,2,3,6-tetrahydropyridin-4-yl)-1H-pyrrolo[2,3-b]pyridin-6-yl)cyclopropanecarboxamide]: 20 to 200 nM. The figure for `CCc1cc(-c2cc(NC(=O)C3CC3)nc3[nH]ccc23)ccc1NS(=O)(=O)C1CC1` [Example 125, N-(4-(4-(cyclopropanesulfonamido)-3-ethylphenyl)-1H-pyrrolo[2,3-b]pyridin-6-yl)cyclopropanecarboxamide] is under 20 nM; for `N#CCNC(=O)C1CC=C(c2cc(NC(=O)C3CC3)nc3[nH]ccc23)CC1` (stereo not drawn) [Example 530, N-(cyanomethyl)-4-(6-(cyclopropanecarboxamido)-1H-pyrrolo[2,3-b]pyridin-4-yl)cyclohex-3-ene-1-carboxamide] it is 20 to 200 nM; for `C[C@@H]1CN(C(=O)c2ccnc(Cl)c2)CC=C1c1cc(NC(=O)C2CC2)nc2[nH]ccc12` [Example 399, (S)—N-(4-(1-(2-chloroisonicotinoyl)-3-methyl-1,2,3,6-tetrahydropyridin-4-yl)-1H-pyrrolo[2,3-b]pyridin-6-yl)cyclopropanecarboxamide] it is under 20 nM. Consider `CC1CN(S(=O)(=O)Nc2ccc(-c3nc(NC(=O)C4CC4)nc4[nH]ccc34)cc2)CC(C)O1` (stereo not drawn) [Example 237, N-(4-(4-((2,6-dimethylmorpholine)-4-sulfonamido)phenyl)-7H-pyrrolo[2,3-d]pyrimidin-2-yl)cyclopropanecarboxamide], for which the IC50 is over 200 nM. Next, `CC1CN(C(=O)CC#N)CC=C1c1cc(NC(=O)C2CC2)nc2[nH]ccc12` (stereo not drawn) [Example 283, N-(4-(1-(2-cyanoacetyl)-3-methyl-1,2,3,6-tetrahydropyridin-4-yl)-1H-pyrrolo[2,3-b]pyridin-6-yl)cyclopropanecarboxamide]: under 20 nM; `N#Cc1cccc(C(=O)N2C3CCC2CN(c2cc(NC(=O)C4CC4)nc4[nH]ccc24)C3)c1` [Example 686, N-(4-(8-(3-cyanobenzoyl)-3,8-diazabicyclo[3.2.1]octan-3-yl)-1H-pyrrolo[2,3-b]pyridin-6-yl)cyclopropanecarboxamide]: under 20 nM; `Cc1nc(C)c(C(=O)N2CC=C(c3cc(NC(=O)C4CC4)nc4[nH]ccc34)C(C)C2)s1` (stereo not drawn) [Example 307, N-(4-(1-(2,4-dimethylthiazole-5-carbonyl)-3-methyl-1,2,3,6-tetrahydropyridin-4-yl)-1H-pyrrolo[2,3-b]pyridin-6-yl)cyclopropanecarboxamide]: over 200 nM. As for `CCS(=O)(=O)N1CCC(n2cc(-c3cc(NC(=O)C4CC4)nc4[nH]ccc34)cn2)CC1` [Example 608, N-(4-(1-(1-(ethylsulfonyl)piperidin-4-yl)-1H-pyrazol-4-yl)-1H-pyrrolo[2,3-b]pyridin-6-yl)cyclopropanecarboxamide], the IC50 is 20 to 200 nM. The figure for `CC1CN(C(=O)n2ccnc2)CC=C1c1cc(NC(=O)C2CC2)nc2[nH]ccc12` (stereo not drawn) [Example 452, N-(4-(1-(1H-imidazole-1-carbonyl)-3-methyl-1,2,3,6-tetrahydropyridin-4-yl)-1H-pyrrolo[2,3-b]pyridin-6-yl)cyclopropanecarboxamide] is under 20 nM.

The values are drawn from US11524968B2, “Heterocyclic compound as a protein kinase inhibitor” (HK inno.N Corporation, priority 2017, dated 2022).
